From ChEMBL document CHEMBL1201862, “PubChem BioAssay data set” (2004)
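Exposure lasted 48 hours, with cells grown in 96-well plates and compounds tested at five concentrations. Here, GI50 denotes the concentration required for 50% inhibition of growth.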 The source made the active and inactive calls. Rule as the data show it: active = GI50 up to about 1.1 µM and inactive = higher.

Experiments:
Test in all cases: growth of human tumour cells (NCI), 48 h
[1] = test system: 786-0
[2] = test system: COLO 205
[3] = test system: DU-145
[4] = test system: HCT-15
[5] = test system: HL-60
[6] = test system: HT-29
[7] = test system: Hs-578T
[8] = test system: Malme-3M
[9] = test system: NCI-H226
[10] = test system: NCI/ADR-RES
[11] = test system: RXF 393
[12] = test system: SF-295
[13] = test system: SF-539
[14] = test system: SK-MEL-2
[15] = test system: SK-OV-3
[16] = test system: SNB-19
[17] = test system: SR
[18] = test system: SW-620
[19] = test system: UO-31

| Compound | GI50 [1] | GI50 [2] | GI50 [3] | GI50 [4] [µM] | GI50 [5] | GI50 [6] | GI50 [7] | GI50 [8] | GI50 [9] | GI50 [10] | GI50 [11] | GI50 [12] | GI50 [13] | GI50 [14] | GI50 [15] | GI50 [16] | GI50 [17] | GI50 [18] | GI50 [19] |
| --- | --- | --- | --- | --- | --- | --- | --- | --- | --- | --- | --- | --- | --- | --- | --- | --- | --- | --- | --- |
| COC(=O)C(C)(C)[C@@H]1OC(=O)N(S(=O)(=O)c2c(C)cc(C)cc2C)[C@H]1C(C)C | > 100 µM (inactive) | 27 µM (inactive) | > 100 µM (inactive) | > 100 | 23.6 µM (inactive) | 65.8 µM (inactive) | 43 µM (inactive) | > 100 µM (inactive) | 27.4 µM (inactive) | > 100 µM (inactive) | > 100 µM (inactive) | > 100 µM (inactive) | > 100 µM (inactive) | 95.7 µM (inactive) | > 100 µM (inactive) | > 100 µM (inactive) | 75.7 µM (inactive) | 82.2 µM (inactive) | > 100 µM (inactive) |
| CS(=O)(=O)Nc1ccc2ccccc2c1-c1c(NS(C)(=O)=O)ccc2ccccc12 | > 15.5 µM (inactive) | > 25 µM (inactive) | > 25 µM (inactive) | > 25 | > 25 µM (inactive) | > 25 µM (inactive) | > 25 µM (inactive) | > 25 µM (inactive) | > 25 µM (inactive) | > 25 µM (inactive) | > 21.5 µM (inactive) | > 25 µM (inactive) | > 25 µM (inactive) | > 25 µM (inactive) | > 25 µM (inactive) | > 25 µM (inactive) | > 25 µM (inactive) | > 25 µM (inactive) | > 25 µM (inactive) |
| COc1cc(C2c3cc4c(cc3OC(NC3CCCCC3)C2C)OCO4)cc(OC)c1OC (configuration not stated) | 0.493 µM (active) | 0.241 µM (active) | 0.478 µM (active) | 0.543 | 0.271 µM (active) | 0.383 µM (active) | 0.377 µM (active) | 0.321 µM (active) | 1.52 µM (inactive) | 0.296 µM (active) | 0.258 µM (active) | 0.203 µM (active) | 0.339 µM (active) | 0.578 µM (active) | 0.394 µM (active) | 0.45 µM (active) | 0.378 µM (active) | 0.34 µM (active) | 0.515 µM (active) |
| COc1ccc(/C=C/c2cnc3ccccc3n2)cc1OC | 53.6 µM (inactive) | 72.1 µM (inactive) | > 100 µM (inactive) | 37 | 47.2 µM (inactive) | 36.1 µM (inactive) | 89.3 µM (inactive) | 38.2 µM (inactive) | > 100 µM (inactive) | 38.2 µM (inactive) | > 100 µM (inactive) | 52.8 µM (inactive) | > 100 µM (inactive) | 92.7 µM (inactive) | 75.7 µM (inactive) |  | > 100 µM (inactive) | > 100 µM (inactive) | 34.7 µM (inactive) |
| CCOc1cc(C2SCC(=O)N2c2ccc3c(c2)Oc2c(Cl)c4c(c(Cl)c2=N3)Oc2cc(N3C(=O)CSC3c3ccc(O)c(OCC)c3)ccc2N=4)ccc1O (configuration not stated) | 30.1 µM (inactive) |  | 29.9 µM (inactive) | 43.1 | 1.68 µM (inactive) | 39.8 µM (inactive) | 73.5 µM (inactive) |  | 25.9 µM (inactive) | 39 µM (inactive) | 21.3 µM (inactive) | 38.9 µM (inactive) | 14.9 µM (inactive) | 27.5 µM (inactive) |  |  | 2.08 µM (inactive) | 54.7 µM (inactive) | 68.1 µM (inactive) |
| Cc1cc2nnn(C3CCCO3)c2cc1C (configuration not stated) | > 100 µM (inactive) | > 100 µM (inactive) | > 100 µM (inactive) | > 100 | > 100 µM (inactive) | > 100 µM (inactive) | > 100 µM (inactive) | > 100 µM (inactive) | > 100 µM (inactive) | > 100 µM (inactive) | > 100 µM (inactive) | > 100 µM (inactive) | > 100 µM (inactive) | > 100 µM (inactive) | > 100 µM (inactive) |  | > 100 µM (inactive) |  |  |
| Cc1cccc(-c2nc3ccc([N+](=O)[O-])cc3c(=O)o2)c1 | 48.8 µM (inactive) | > 100 µM (inactive) | 59.8 µM (inactive) | 74.3 | 59.7 µM (inactive) | 62.4 µM (inactive) | 22 µM (inactive) | 51.4 µM (inactive) | 71.6 µM (inactive) | 26.1 µM (inactive) | > 100 µM (inactive) | 36.1 µM (inactive) | 27.9 µM (inactive) | 91.2 µM (inactive) | > 100 µM (inactive) |  | 28.8 µM (inactive) | 73.3 µM (inactive) | 43.8 µM (inactive) |
| COc1cc2c(cc1OC)C(=O)N(NC1=NCCN1)C2=O | > 100 µM (inactive) | > 100 µM (inactive) | > 100 µM (inactive) | > 100 | > 100 µM (inactive) | > 100 µM (inactive) | > 100 µM (inactive) | > 100 µM (inactive) | > 100 µM (inactive) | > 100 µM (inactive) | > 100 µM (inactive) | > 100 µM (inactive) | > 100 µM (inactive) | > 100 µM (inactive) | > 100 µM (inactive) | > 100 µM (inactive) | 63 µM (inactive) | > 100 µM (inactive) |  |
| COc1ccc(/C=C2\Sc3nnc(-c4ccccc4)n3N=C2c2cc(F)c(Cl)cc2Cl)cc1OC | 48.4 µM (inactive) |  | > 100 µM (inactive) | 19.1 | 0.573 µM (active) | 12.1 µM (inactive) | 20.6 µM (inactive) |  | > 100 µM (inactive) | 33.1 µM (inactive) | 11.7 µM (inactive) | > 100 µM (inactive) | > 100 µM (inactive) | > 100 µM (inactive) | > 100 µM (inactive) |  | 2.14 µM (inactive) | 14.2 µM (inactive) | 31.1 µM (inactive) |
| OCCNCCN1CCN(CCCN2c3ccccc3Sc3ccc(C(F)(F)F)cc32)CC1 | 17.3 µM (inactive) | 18.2 µM (inactive) | 50.6 µM (inactive) | 19.7 | > 100 µM (inactive) | 14 µM (inactive) | 47.3 µM (inactive) | 29.5 µM (inactive) | 26.5 µM (inactive) | 27.8 µM (inactive) | 26.3 µM (inactive) | 20.4 µM (inactive) | 20.2 µM (inactive) | 21.5 µM (inactive) | 33.6 µM (inactive) | 24.7 µM (inactive) | > 100 µM (inactive) | 19.2 µM (inactive) |  |
| O=C1O[C@H]2C3C4CCC(C4[C@@H]2I)[C@H]13 (some centres not stated) | > 100 µM (inactive) | > 100 µM (inactive) | > 100 µM (inactive) | > 100 | > 100 µM (inactive) | > 100 µM (inactive) | > 100 µM (inactive) | > 100 µM (inactive) | > 100 µM (inactive) | > 100 µM (inactive) | > 100 µM (inactive) | > 100 µM (inactive) | > 100 µM (inactive) | > 100 µM (inactive) |  | > 100 µM (inactive) | > 100 µM (inactive) | > 100 µM (inactive) | > 100 µM (inactive) |
| CSC1=N/C(=C\c2c[nH]c3ccccc23)C(=O)N1 | 84.3 µM (inactive) | 63 µM (inactive) | 96.8 µM (inactive) | 75.3 | 18.3 µM (inactive) | 31.6 µM (inactive) | 43.4 µM (inactive) | 36.1 µM (inactive) | > 100 µM (inactive) | 85.7 µM (inactive) | 92.7 µM (inactive) |  | > 100 µM (inactive) | 35.8 µM (inactive) | > 100 µM (inactive) | > 100 µM (inactive) | 97.7 µM (inactive) | > 100 µM (inactive) | 35.8 µM (inactive) |
